Experimental data reported in patent US12245591B2, “Templated antimicrobial microgels and methods of making and using the same” (THE BOARD OF TRUSTEES OF THE UNIVERSITY OF ARKANSAS, priority 2019, dated 2025).
≈ marks a conversion by molar mass, not a printed value. Read-outs that look alike come from different tables or passages of the source.

Tests used:
[1] = Coordination to binuclear complex Cu2bpdpo, isothermal titration calorimetry; type: binding; details: coordination to the metal complex; pH 10.50, 10° C.
Text: The coordination of galactonoamidine 1 to binuclear complexes was already evaluated in part and included Cu2bpdpo (5), a nonpolymerizable analogue of 3 (FIG. 15).

E. coli (BL21 DE3) = experiment: Minimal inhibitory concentration (MIC), broth microdilution, E. coli; type: cell-based; details: for MIC: Escherichia coli, read-out: MIC E. coli
Procedure: (§1) The minimal inhibitory concentration (MIC) and minimal bactericidal concentration (MBC) by broth microdilution assays in 96-well plates to determine antimicrobial activity of selected agents against Gram-positive and Gram-negative bacteria
(§2) Antimicrobial materials: In a typical experiment, the synthesized polymers were prepared for antimicrobial assays as described for the kinetic assays in Example 4(A), except as indicated in Tables 7-10 and 12.
(§3) Mueller Hinton broth (MHB): A sterile broth is prepared with 4.50 g Mueller Hinton base (Hardy Diagnostics) in 200 mL deionized water. The broth is cooled to room temperature after being autoclaved and stored at 4° C. until use.
(§4) Propagation of bacterial cells: Typically, 500 μL aliquots of S. aureus (ATCC® 25923™) or E. coli (BL21 DE3) cells are used to inoculate 5 mL of Mueller Hinton broth. The inoculum is shaken at 37° C. and 240 rpm for 6 h. Then, 500 μL aliquots are transferred to individual vessels, flash-frozen in liquid nitrogen, and stored as pre-starter cultures at −20° C. until use.
(§5) Growth of bacterial cells: A 500 μL pre-starter culture is used to inoculate 5 mL of Mueller Hinton broth at 37° C. After 5 h of shaking at 240 rpm, a 500 μL of the inoculum is diluted to 20 mL with sterile MHB, followed by three successive 1:10 dilutions of 1000 μL of the resulting solutions into 10 mL MHB. Subsequently, 50 μL of the most dilute cell suspension is spread on a Mueller-Hinton agar plate, and incubated at 37° C. After 24 h, selected colonies are re-suspended in 4 mL of Mueller-Hinton broth and diluted until their OD625 value matched that of a 0.5 McFarland standard at 37° C. to account for a cell concentration of 1×10^8 CFU/mL. Typically, a 50 μL aliquot of the cell suspension is diluted into 10 mL of Mueller-Hinton broth to obtain a stock solution of S. aureus cells at a concentration of 5×10^5 CFU/mL. Typically, two separate inoculums are prepared immediately prior to use.
(§6) Preparation of broth microdilution assays and data recording: Following standard procedures for conducting broth microdilution assays, 100 μL aliquots of Mueller-Hinton broth are added to each well. Subsequently, a 100 μL aliquot of the sterile antimicrobial agent solution is added in the first column of the plate and then diluted in a serial manner by subsequent transfers of 100 μL aliquots over the first 10 columns. […] Typically, the absorbance in each well is then monitored at 595 nm and 37° C. over a 16 h period in 2 h intervals.
(§7) Data analysis: The obtained absorbance data are plotted against time to determine the steady state point of cell growth. The change of absorbance at this time for wells with and without antimicrobial agent is then plotted against the concentration of the antimicrobial agent. […]

S. aureus (ATCC 25923) = experiment: Minimal inhibitory concentration (MIC), broth microdilution, S. aureus; type: cell-based; details: for MIC: Staphylococcus aureus
Procedure: as §1, §2, §3, §4, §5, §6, §7

B21 DE3 E. coli cells = experiment: Growth of E. coli cells in petridish assays with Müller-Hinton/agar media; type: cell-based; details: 37° C., 12 h
Procedure: Sterile Müller-Hinton/Agar (MH) media. 4.54 g Müller-Hinton media and 5.07 g agar were dissolved in 200 mL deionized water. The media were autoclaved and stored at 4° C. until use.
E. coli cell culture. A 100 μL aliquot of B21 DE3 E. coli cells, purchased from New England Biolabs, were added to 1 mL of sterile Luria-Bertani broth; the culture was incubated for 2 hours at 37° C. Then, a 100 μL aliquot of this culture was diluted by serial dilution 200,000-fold with sterile LB (Miller's) media yielding 10 mL of a stock solution of the cell culture.
Stock solution of low molecular weight complex Cu2bpdpo (catalyst 1). 5.28 mg of Cu2bpdpo were dissolved in 5 mL of 50 mM HEPES buffer at pH 7.00; a 1000 μl aliquot of the resulting solution was further diluted into 10 mL yielding a 160.3 μM stock solution of Cu2bpdpo.
Stock solution of Hen Egg-white lysozyme (catalyst 2). 11.53 mg of lyophilized lysozyme purchased from AMRESCO were dissolved in 5 mL of 50 mM HEPES buffer at pH 7.00 and used as a 161.1 μM stock solution.
Stock solutions of microgels (catalysts 3-5). All microgel stock solutions were treated as described above, but only diluted 1:5 during activation and then sterilized prior to use for these experiments. The stock solution for ^Cu2LPgal (40%) is 112.3 μM, for ^Cu2LPgal (60%) 145.6 μM and for ^Cu2LP1 (60%) 153.6 μM.
Plate preparation. […]

[2] = Stability of galactonoamidine against hydrolysis under buffer and temperature conditions (HPLC, NMR); type: physicochemical
Procedure: The instrumentation, reagents, and materials for this study were recently described. [Sharma, B. et al. Biomacromolecules 2018, 19, 1164-1174; Sharma, B. et al. […]. 2018, 8, 7710-7718] The computational analysis was performed with PQSmol as reported. [Sharma Biomacromolecules 2018; […]. et al. Dalton Trans. 2016, 45, 15203-15210; Becke, A. D. J. Chem. Phys. 1993, 98, 5648-5652; Lee, C. et al. Phys. Rev. B: Condens. Matter Mater. Phys. 1988, 37, 785-789; PQSmol, Version 4.1; Parallel Quantum Solutions: […]. et al. J. Chem. […] [[…]. et al. Bioorg. Med. Chem. 2016, 24, 3371-3377] Glyconoamidines are prone to nucleophilic attack at the anomeric C atom and subsequent hydrolysis in alkaline solution. Various glyconoamidines have been previously synthesized. [Bleriot, Y. et al. Bioorg. Med. Chem. Lett. 1995, 5, 2655-60; Bleriot, Y. et al. Tetrahedron Lett. 1994, 35, 1867-70; Heck, M.-P. et al. J. Am. Chem. Soc. 2004, 126, 1971-1979; […]. Res. 1996, 29, 340-347] We evaluated the hydrolysis of galactonoamidine 1 under various buffer and temperature conditions to ensure its stability under polymerization conditions. […] The stability of 1 was also observed at 0 and 10° C. over a 3 h time period in 5 mM CAPS buffer solution at pH 10.50. Buffer solutions with similar molarity at lower pH values behave likewise (FIG. 13).

[3] = type: biochemical; details: for Km / kcat: substrate β-9
Procedure: 2.8.4. Catalytic Glycoside Hydrolysis. […]
Substrate Stock Solution. […] As the glycoside precipitates in this concentration from aqueous solutions at ambient temperature, the resulting solution was kept above 50° C. until use.
Catalyst Stock Solutions. The microgel dispersions were used as described above. […]
Kinetic Assay. In a typical experiment, 20 μL of an activated microgel dispersion were added to aliquots of the glycoside stock solution (0-100 μL) and corresponding amounts of buffer solution, keeping the nominal volume of the resulting solutions at 200 μL. […] The product formation was read in 20 min intervals after orbital shaking of the solutions over 5 s each. All experiments were performed in duplicate or triplicate.
Data Analysis. The collected fluorescence intensity was plotted over time, and a linear fit applied to the data collected between 140 and 480 min. The calculated rates of the reaction were then corrected by the corresponding apparent extinction coefficient and catalyst amount, averaged from two independent experiments, and plotted over the molar substrate concentration. Nonlinear regression of the resulting hyperbolic data yielded the rate constant kcat and the apparent substrate affinity KM. The rate constant of the uncatalyzed reaction knon was determined by applying a linear fit to the corrected rates of the collected data obtained in absence of catalyst. Data obtained in the presence of metal-ion free control polymer ^LPgal and from control polymer ^Cu2LPEG were treated likewise to estimate their catalytic efficiency.
The turbidity of the aqueous microgel dispersions under consideration here increases visibly to the naked eye with the crosslinking content from 5 to 80 mol % EGDMA. As a consequence, the apparent extinction coefficient (εapp) was determined for each microgel under the respective assay conditions prior to analysis of related spectroscopic data. […] (FIG. 9). [Chen, R. F Anal. Lett. 1968, 1(7), 423-428] […] [Striegler 2010] and used here to establish catalytic activity of the newly synthesized crosslinked microgels. The assay was developed in a 96-well plate format to allow fast catalyst screening under various reaction conditions, including lower pH values in future efforts.
Likewise, a linear correlation between the concentration of the low molecular weight complex Cu2bpdpo (2) and the product formation of the glycoside hydrolysis was observed when the catalyst was used in concentrations up to 12 μM under assay conditions. With a fast screening assay on hand, the hydrolysis of glycoside 6 was evaluated with two different microgel catalysts at 60% crosslinking content: a polymer […] prepared in the presence of galactose and its metal-free, nonactivated analogue ^LPgal. Control experiments were conducted using a microgel ^Cu2LPEG that has the same crosslinking content as those polymers above, but is prepared in the presence of ethylene glycol instead of galactose. Additionally, hydrolysis of 6 was followed in the presence of low molecular weight complex Cu2bpdpo (2) and in the absence of catalyst in the buffer solution itself. The resulting hyperbolic data for the glycoside hydrolyses were analyzed by applying the Michaelis-Menten model to obtain the rate of the reaction (kcat), the substrate affinity (KM), and the rate of the uncatalyzed reaction (knon) in aqueous buffer solution. The catalytic proficiency (kcat/(KM×knon), catalytic efficiency (kcat/KM), and acceleration of the reaction over the uncatalyzed background reaction (kcat/knon) were then calculated therefrom as described (Table 1, FIG. 11).
Activated microgel catalysts were prepared as described. [Sharma Biomacromolecules 2018] Typical stock solutions were as follows: Cu2bpdpo […] 2 mM, β-galactosidase as described [Sharma ACS Catal. 2018], 4-methylumbelliferyl α-D-galactopyranoside (α-9) 8-9 mM, and 4-methylumbelliferyl […] 3-4 mM. […]

[4] = broth microdilution, 37° C., 2.5×10^5 CFU/mL
[5] = ATCC25923, broth microdilution, 37° C., 2.5×10^5 CFU/mL, read-out: MIC S. aureus
[6] = 5 mM aqueous HEPES buffer, pH 7.00, 37° C.
[7] = 50 mM aqueous CAPS buffer, pH 10.50, 37° C.

Text for physchem: As the dissociation constant of CEA in water is to the best of our knowledge not reported, we used the structural similarity between CEA and propionic acid to predict the pKa value of CEA as 4.9.42 We then projected the pKa value of a linear CEA-polymer as 5.6, and estimated the pKa value of a crosslinked microgel with 20 mol % of CEA as 10.1 following the method by Fisher and Kunin as described.43 In short, the apparent pKa values of crosslinked microgels were estimated from the pKa(m=1) value of a linear polymer of the monomeric acid as eq 2 pKa,app=pKa(m=1)(2−m) (eq 2) where m is the mol fraction of the monomeric acid. The dissociation constant of the linear polymer is estimated graphically by extrapolation.

O=C[C@H](O)[C@@H](O)[C@@H](O)[C@H](O)CO [galactose]
pKa, gal [1]: 2.70

CN[C@H](CC(C)C)C(=O)N[C@H]1C(=O)N[C@@H](CC(N)=O)C(=O)N[C@H]2C(=O)N[C@H]3C(=O)N[C@H](C(=O)N[C@H](C(=O)O)c4cc(O)cc(O)c4-c4cc3ccc4O)[C@H](O)c3ccc(c(Cl)c3)Oc3cc2cc(c3O[C@@H]2O[C@H](CO)[C@@H](O)[C@H](O)[C@H]2O[C@H]2C[C@](C)(N)[C@H](O)[C@H](C)O2)Oc2ccc(cc2Cl)[C@H]1O [Vancomycin]
MIC (E. coli (BL21 DE3)): 12.5 ± 0.2 µg/mL (≈ 8.63 µM) | MIC (S. aureus (ATCC 25923); ATCC25923, read-out: MIC S. aureus): 2.35 ± 0.14 µg/mL (≈ 1.62 µM)

lysozyme: Hen Egg-white lysozyme purchased from AMRESCO
inhibition of cell growth of E. coli on Müller-Hinton agar plates (B21 DE3 E. coli cells): inhibition of cell growth to a much smaller extend

CCCCCCCCCCCCOS(=O)(=O)[O-].[Na+] [SDS, sodium dodecyl sulfate]
MIC (E. coli (BL21 DE3); [4]): 325 ± 11 µg/mL | MIC (S. aureus (ATCC 25923); [5]): 122 ± 1 µg/mL

Benzalkonium chloride
MIC E. coli (E. coli (BL21 DE3); [4]): 117 ± 1 µg/mL | MIC S. aureus (S. aureus (ATCC 25923); [4]): 4.32 ± 0.01 µg/mL

O=C(N[C@H](CO)[C@H](O)c1ccc([N+](=O)[O-])cc1)C(Cl)Cl [Chloramphenicol]
MIC (E. coli (BL21 DE3); [4]): 1.29 ± 0.04 µg/mL (≈ 3.99 µM) | MIC (S. aureus (ATCC 25923); [5]): 6.11 ± 0.02 µg/mL (≈ 18.9 µM)

Cc1ccc(CNC2=NC(CO)C(O)C(O)C2O)cc1 (stereo not drawn) [galactonoamidine 1]
stability against hydrolysis ([2]; 50 mM CAPS buffer, pH 10.50, 72° C.): instant hydrolysis | stability against hydrolysis ([2]; buffer strength lowered to 5 mM, pH 10.50, 72° C.): slowed the hydrolysis | stability against hydrolysis ([2]; pure deuterium oxide, 72° C., 3 h): stable

β-galactosidase: β-galactosidase (bovine liver)
stabilization of enzyme-catalyzed hydrolysis relative to microgel ^Cu2LP1 ([3]; pH 7): 3.5×106 fold | catalytic proficiency relative to low molecular weight complex Cu2bpdpo ([3]; substrate 6 / β-9, pH 10.50, CAPS, 37° C.): about 3250 fold | Km [3, 6]: 110 ± 220 µM | kcat [3, 6]: 4.6 ± 0.1 min⁻¹ | Km [3, 7]: 540 ± 60 µM | kcat [3, 7]: 2.95 ± 0.09 10^−3 min^−1 | catalytic proficiency higher than that of amidine-templated microgel ^Cu2LP1 ([3]; β-9, alkaline solution, pH 10.50): about 57 fold

C=CC(=O)OCCC(=O)O [CEA monomer, carboxyethyl acrylate]
pKa (physchem): 4.9
